Source: the supplement of paper PMC13380429
± gives the standard deviation of the averaged measurements.

Key:
Settings in all cases: 72 h
Calu-3 [1] = assay: cell viability relative to DMSO; higher = less toxic
Caco-2 [2] = assay: as above
Vero E6 [3] = assay: as above
HepG2 [4] = assay: as above
U2OS [5] = assay: as above
Calu-3 [6] = assay: drug sensitivity score (DSS) for viability; higher = more toxic; extreme values may be limits of the assay
Caco-2 [7] = assay: as above
Vero E6 [8] = assay: as above
HepG2 [9] = assay: as above
U2OS [10] = assay: as above
Calu-3 [11] = assay: relative viability EC50 (midpoint between 100% and the lowest measured viability); higher = less toxic
Caco-2 [12] = assay: as above
Vero E6 [13] = assay: as above
HepG2 [14] = assay: as above
U2OS [15] = assay: as above

Row | SMILES | cell viability (Calu-3 [1]; 1 nM) | cell viability (Calu-3 [1]; 10 nM) | cell viability (Calu-3 [1]; 100 nM) | cell viability (Calu-3 [1]; 1000 nM) | cell viability (Calu-3 [1]; 10000 nM) | cell viability (Caco-2 [2]; 1 nM) | cell viability (Caco-2 [2]; 10 nM) | cell viability (Caco-2 [2]; 100 nM) | cell viability (Caco-2 [2]; 1000 nM) | cell viability (Caco-2 [2]; 10000 nM) | cell viability (Vero E6 [3]; 1 nM) | cell viability (Vero E6 [3]; 10 nM) | cell viability (Vero E6 [3]; 100 nM) | cell viability (Vero E6 [3]; 1000 nM) | cell viability (Vero E6 [3]; 10000 nM) | cell viability (HepG2 [4]; 1 nM) | cell viability (HepG2 [4]; 10 nM) | cell viability (HepG2 [4]; 100 nM) | cell viability (HepG2 [4]; 1000 nM) | cell viability (HepG2 [4]; 10000 nM) | cell viability (U2OS [5]; 1 nM) | cell viability (U2OS [5]; 10 nM) | cell viability (U2OS [5]; 100 nM) | cell viability (U2OS [5]; 1000 nM) | cell viability (U2OS [5]; 10000 nM) | drug sensitivity score (Calu-3 [6]) | drug sensitivity score (Caco-2 [7]) | drug sensitivity score (Vero E6 [8]) | drug sensitivity score (HepG2 [9]) | drug sensitivity score (U2OS [10]) | relative viability EC50 (Calu-3 [11]) | relative viability EC50 (Caco-2 [12]) | relative viability EC50 (Vero E6 [13]) | relative viability EC50 (HepG2 [14]) | relative viability EC50 (U2OS [15])
1 | COc1ccc(-c2cc3c(C)nc(N)nc3n([C@H]3CC[C@H](OCCO)CC3)c2=O)cn1 | 85.3% | 87.3% | 56% | 19.6% | 10% | 92.5% | 89.9% | 67.1% | 27.7% | 23.4% | 94% | 98.4% | 74.4% | 30% | 17% | 104% | 103% | 77.5% | 28.7% | 20.1% | 100% | 95% | 89.1% | 32.6% | 3.8% | 20.8 | 17.2 | 16 | 15.9 | 14.2 | 0.0917 µM | 0.114 µM | 0.21 µM | 0.202 µM | 0.504 µM
2 | O=C(O)CCCc1c[nH]c2ccccc12 [3-indolebutyric-acid] | 99.6% | 100% | 97.7% | 100% | 99.3% | 99.4% | 88.5% | 89.6% | 92.5% | 91.7% | 102% | 101% | 101% | 97.2% | 94.2% | 98.3% | 99.4% | 92.8% | 87.9% | 101% | 102% | 102% | 101% | 95% | 99.9% | 0 | 1.2 | 0 | 0 | 0 | > 10 µM | > 10 µM | > 10 µM | > 10 µM | > 10 µM
3 | CC(C)=CCC[C@](C)(O)[C@@H]1CC=C(C)CC1 [levomenol] | 97.9% | 98.2% | 97.2% | 94.3% | 100% | 101% | 103% | 82.6% | 110% | 95.1% | 94.6% | 96.5% | 99% | 98.8% | 108% | 99.8% | 100% | 116% | 98.1% | 106% | 96.2% | 100% | 96.4% | 104% | 103% | 0 | 0 | 0 | 0 | 0 | > 10 µM | > 10 µM | > 10 µM | > 10 µM | > 10 µM
4 | NC(=O)c1ccc(-c2nc(-c3ccc4c(c3)OCCO4)c(-c3ccccn3)[nH]2)cc1 [D-4476] | 84.4% | 101% | 96.1% | 108% | 98.8% | 93% | 95.1% | 92.4% | 92.8% | 98.6% | 102% | 93.4% | 100% | 106% | 106% | 105% | 103% | 96.3% | 96% | 105% | 96.1% | 97.9% | 96.7% | 99.5% | 91.9% | 0 | 0 | 0 | 0 | 0 | > 10 µM | > 10 µM | > 10 µM | > 10 µM | > 10 µM
5 | CC(C)NC[C@@H](O)COc1ccc(CC(N)=O)cc1 (racemic) [atenolol-(+/-)] | 94.2 ± 4.5% | 101 ± 11% | 96.5 ± 3.4% | 97.8 ± 2.3% | 102 ± 2.6% | 99.8 ± 9.3% | 99 ± 11% | 105 ± 7% | 88.3 ± 0.99% | 92.1 ± 0.85% | 103 ± 4.4% | 85.3 ± 10% | 105 ± 4.5% | 92.4 ± 13% | 97 ± 5.9% | 101 ± 10% | 92 ± 14% | 98.9 ± 9.5% | 96.2 ± 8.2% | 99.2 ± 18% | 98.2 ± 3.5% | 96 ± 3% | 100.1 ± 0.28% | 97 ± 0.71% | 99.1 ± 3.7% | 0 | 0.25 ± 0.35 | 0.1 ± 0.14 | 0.05 ± 0.071 | 0 | > 10 µM | > 10 µM | > 10 µM | > 10 µM | > 10 µM
6 | Nc1ccc(-c2ccc3ncc4ccc(=O)n(-c5cccc(C(F)(F)F)c5)c4c3c2)cn1 [torin-2] | 86.3% | 62.6% | 30.2% | 22.2% | 18.5% | 89.4% | 69.1% | 32.7% | 21.7% | 17.8% | 94.6% | 77.1% | 48.6% | 36% | 11.5% | 91.2% | 81.6% | 41.2% | 16.3% | 3.4% | 92.5% | 90.8% | 26.6% | 11% | 0.5% | 28.1 | 26.6 | 21 | 24.5 | 27.3 | 0.0111 µM | 0.0169 µM | 0.0738 µM | 0.0594 µM | 0.0481 µM
7 | C=CC(N)CCC(=O)O (stereo not given) [vigabatrin] | 103% | 105% | 99% | 102% | 106% | 93.7% | 96.1% | 101% | 98.1% | 93.2% | 96.5% | 93.8% | 101% | 88.4% | 97.1% | 100% | 89.6% | 113% | 96.1% | 104% | 95.9% | 103% | 96.8% | 99.4% | 91.7% | 0 | 0 | 0 | 0 | 0 | > 10 µM | > 10 µM | > 10 µM | > 10 µM | > 10 µM
8 | CCCCCCCC(=O)N[C@H](CN1CCCC1)[C@H](O)c1ccc2c(c1)OCCO2 [eliglustat] | 98.7% | 98.3% | 96% | 99.5% | 93.2% | 103% | 96.7% | 95.1% | 99.8% | 99.8% | 97.3% | 91.6% | 84.3% | 84.2% | 85.5% | 100% | 109% | 95.8% | 108% | 92% | 101% | 95.4% | 97.8% | 94.6% | 95.3% | 0 | 0 | 3.1 | 0 | 0 | > 10 µM | > 10 µM | > 10 µM | > 10 µM | > 10 µM
9 | Cc1nnsc1C(=O)Nc1ccc(-n2nc(C(F)(F)F)cc2C(F)(F)F)cc1 | 101% | 98.4% | 95.2% | 104% | 99.9% | 93.4% | 83.8% | 105% | 87.2% | 85.1% | 95.9% | 96.2% | 94.7% | 97.8% | 95.6% | 94.5% | 98.8% | 105% | 107% | 90.9% | 99.9% | 97.9% | 100% | 100% | 99.1% | 0 | 0.2 | 0 | 0 | 0 | > 10 µM | > 10 µM | > 10 µM | > 10 µM | > 10 µM
10 | CCCN(CCC)[C@@H]1CCc2c(OC)cccc2[C@@H]1C [UH-232-(+)] | 102% | 104% | 103% | 102% | 95% | 95.6% | 100% | 97.1% | 93.6% | 92.7% | 95.9% | 102% | 96.5% | 101% | 100% | 97.7% | 103% | 87.2% | 102% | 95.8% | 108% | 106% | 104% | 101% | 99.4% | 0 | 0 | 0 | 0 | 0 | > 10 µM | > 10 µM | > 10 µM | > 10 µM | > 10 µM
11 | CCc1nc2ccc(Cl)cn2c1C(=O)NCc1ccc(N2CCC(c3ccc(OC(F)(F)F)cc3)CC2)cc1 [Q-203] | 99.7% | 100% | 104% | 99.6% | 104% | 97.3% | 95.9% | 97.1% | 93.5% | 85.3% | 107% | 100% | 99.9% | 98.8% | 96.5% | 106% | 108% | 92.1% | 100% | 86.8% | 98.6% | 101% | 97.8% | 97.4% | 99.8% | 0 | 0.1 | 0 | 0.1 | 0 | > 10 µM | > 10 µM | > 10 µM | > 10 µM | > 10 µM
